Test results as given in article PMC8863579, “Effects of pharmacological inhibition of the sodium‐dependent phosphate cotransporter 2b (NPT2b) on intestinal phosphate absorption in mouse and rat models” (Pharmacology Research & Perspectives, 2022).

How the values were obtained:
human NPT2b = molecular target: T1, human NPT2b (Homo sapiens, UniProt O95436); assay: 33P-phosphate uptake in CHO cells expressing human NPT2b; assay type: cell-based; conditions: geometric mean; 2.5 µM phosphate, 60 min, room temperature
T1 construct: Full-Length cDNA Cloning and Generation of Cell Lines Over-Expressing Human, Mouse, and Rat NPT2b; host or cells: CHO-K1 / T-REx CHO, pcDNA5/TO, tetracycline-induced
T1 sequence (O95436 1-690): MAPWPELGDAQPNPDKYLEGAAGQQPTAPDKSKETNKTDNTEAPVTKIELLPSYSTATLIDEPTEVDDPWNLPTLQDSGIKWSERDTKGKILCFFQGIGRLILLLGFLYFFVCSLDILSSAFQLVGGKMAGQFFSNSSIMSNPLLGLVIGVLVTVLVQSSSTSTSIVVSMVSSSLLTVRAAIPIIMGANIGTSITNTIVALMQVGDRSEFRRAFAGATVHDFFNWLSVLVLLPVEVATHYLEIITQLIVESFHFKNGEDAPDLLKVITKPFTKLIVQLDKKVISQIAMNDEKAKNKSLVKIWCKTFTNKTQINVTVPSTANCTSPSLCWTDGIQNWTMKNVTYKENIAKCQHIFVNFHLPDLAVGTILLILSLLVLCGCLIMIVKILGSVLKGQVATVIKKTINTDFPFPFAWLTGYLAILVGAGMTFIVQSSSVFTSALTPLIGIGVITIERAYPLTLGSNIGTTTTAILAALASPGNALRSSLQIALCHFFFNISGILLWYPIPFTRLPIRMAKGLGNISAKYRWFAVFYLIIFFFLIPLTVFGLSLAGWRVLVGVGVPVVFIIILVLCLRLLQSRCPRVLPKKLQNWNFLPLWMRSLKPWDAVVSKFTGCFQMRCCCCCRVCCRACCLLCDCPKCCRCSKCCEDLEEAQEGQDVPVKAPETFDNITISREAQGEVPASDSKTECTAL
Description: T‐Rex™ Chinese Hamster Ovary cells (CHO; Thermo Fisher Scientific) stably expressing human, mouse, or rat NPT2b under a tetracycline‐inducible promoter were generated using standard cDNA transfection and clone selection procedures (see Supporting Information). Cells were plated in 96‐well CytoStar‐T® scintillating microplates and were incubated overnight in growth media plus 100 ng/ml of tetracycline to induce expression of NPT2b. The next day, cells were washed 3 times with 200 µl assay buffer (137 mM NaCl, 5.4 mM KCl, 2.8 mM CaCl2, 1.2 mM MgSO4, and 14 mM Tris‐HCl buffer, pH 7.5). LY3358966 serially diluted 1‐to‐3 in DMSO was added to cells with assay buffer. An equal volume of H3 ^33PO4 (PerkinElmer) in assay buffer supplemented with 5 µM potassium phosphate was then added to initiate radiolabeled phosphate (^33P‐phosphate) uptake. The final phosphate concentration was 2.5 µM and the final DMSO concentration was 1%. Following a 60‐min incubation at room temperature, an equal volume of assay buffer containing 400 µM phloretin was added to stop ^33P‐phosphate uptake. The plate was immediately read on a Wallac MicroBeta Trilux liquid scintillation counter. Percent inhibition at all concentrations tested was calculated, and IC50 values were then determined using a 4‐parameter logistic curve fitting equation.
The vendors for target cDNA are listed in supplemental Table 1. […]

gastric emptying = assay: Gastric emptying assay in mice; assay type: in vivo, mouse; conditions: doses up to 100 mg/kg API
Description: Male C57BL/6 mice, approximately 7–8 weeks old (18–21 g), were fasted overnight. Then, the mice were orally administered a single dose of vehicle (water) or varying doses of LY3358966 SDD dissolved in water. Fifteen minutes later, radiolabeled phosphate was given by oral gavage. Another 15 min later, the animals were sacrificed, and intact stomachs were collected and placed in 50‐ml conical tubes. Ten milliliter of 1 N NaOH was added to each tube and the stomachs were digested at 37°C overnight. Radioactivity in 100 µl digested stomach homogenate was quantitated by scintillation counting. The percent radiolabeled phosphate recovered in the stomach was calculated as the percentage of dpm recovered in the stomach versus the total dpm of radiolabeled phosphate administered.

CC1(C)CN(C(=O)NCCCCO)CCN1Cc1cccc(C(=O)Nc2sc3c(c2C(=O)Nc2cc(F)c(CCc4ccc(C(=O)O)cc4)c(F)c2)CCCC3)c1 [LY3358966, 4‐[2‐[2,6‐difluoro‐4‐[[2‐[[3‐[[4‐(4‐hydroxybutylcarbamoyl)‐2,2‐dimethyl‐piperazin‐1‐yl]methyl]benzoyl]amino]‐4,5,6,7‐tetrahydrobenzothiophene‐3‐carbonyl]amino]phenyl]ethyl]benzoic acid] was tested, and the IC50 (human NPT2b) was 32.4 nM and the “effect on gastric emptying” value (gastric emptying) was “no effect on gastric emptying”.
